This note sets out measurements from patent US11446287B2, “Compounds and methods for EP300 or CBP modulation and indications therefor” (Opna Immuno-Oncology SA, priority 2019, dated 2022).

The test concerns the target T1, Recombinant human EP300 containing the bromodomain (EP300-BD (1040-1161)) (Homo sapiens, UniProt Q09472).
T1 construct: Recombinant human EP300 bromodomain (EP300-BD (1040-1161)); made in house; host or cells: E. coli BL21-CodonPlus (DE3), modified pET vector
T1 sequence (Q09472 1040-1161): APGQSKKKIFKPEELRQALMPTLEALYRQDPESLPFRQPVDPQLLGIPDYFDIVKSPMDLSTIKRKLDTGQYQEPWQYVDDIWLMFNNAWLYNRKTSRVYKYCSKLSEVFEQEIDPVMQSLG
Nature of the test: EP300 Alphascreen binding assay. In short, it runs like this: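 Displacement of a biotinylated acetyl-K56 histone H3 peptide from the N-His bromodomain construct (1040-1161) measured by AlphaScreen proximity, beads at 7.5 μg/ml final, read 60 min after addition. Protein, peptide and compound first incubated 1 h at room temperature, pH 7.5 HEPES buffer; IC50 by four-parameter logistic fit.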
In general terms: In Alpha technology, singlet oxygen from a donor bead excites a nearby acceptor bead.
With `Cc1noc(C)c1-c1cnc2c(c1)c(-c1cccc(C(=O)O)c1)cn2Cc1ccccn1` [P-0049, 3-(5-(3,5-dimethylisoxazol-4-yl)-1-(pyridin-2-ylmethyl)-1H-pyrrolo[2,3-b]pyridin-3-yl)benzoic acid], the half-inhibitory concentration (IC50) (as a rule, the concentration needed to halve the response being measured) was 0.1 to 1000 nM.

With `Cc1noc(C)c1-c1cnc2c(c1)c(-c1cccc(C(=O)O)c1)cn2CC1CC1` [P-0050, 3-(1-(cyclopropylmethyl)-5-(3,5-dimethylisoxazol-4-yl)-1H-pyrrolo[2,3-b]pyridin-3-yl)benzoic acid], the concentration for half-maximal inhibition (IC50) was in the range of 0.1 to 1000 nM.

`Cc1noc(C)c1-c1cnc2c(c1)c(C#CC(C)(C)C(=O)O)cn2Cc1ccccc1` [P-0051, 4-(1-benzyl-5-(3,5-dimethylisoxazol-4-yl)-1H-pyrrolo[2,3-b]pyridin-3-yl)-2,2-dimethylbut-3-ynoic acid]: the half-maximal inhibitory concentration (IC50) is 0.1 to 1000 nM.

With `COC(=O)c1cc(-n2cc(Cc3ccccc3)c3ncc(-c4c(C)noc4C)cc32)ccn1` [P-0052, methyl 4-(3-benzyl-6-(3,5-dimethylisoxazol-4-yl)-1H-pyrrolo[3,2-b]pyridin-1-yl)picolinate], the 50% inhibitory concentration (IC50) lay within 0.1 to 1000 nM.

As to `Cc1noc(C)c1-c1cnc2c(Cc3ccccc3)cn(-c3ccnc(C(=O)O)c3)c2c1` [P-0053, 4-(3-benzyl-6-(3,5-dimethylisoxazol-4-yl)-1H-pyrrolo[3,2-b]pyridin-1-yl)picolinic acid], the IC50 lay within 0.1 to 1000 nM.

Turning to `Cc1noc(C)c1-c1cnc2c(C(=O)c3ccccc3)cn(-c3ccnc(C(=O)O)c3)c2c1` [P-0054, 4-(3-benzoyl-6-(3,5-dimethylisoxazol-4-yl)-1H-pyrrolo[3,2-b]pyridin-1-yl)picolinic acid], the IC50 was 0.1 to 1000 nM.

Take `Cc1noc(C)c1-c1cnc2c(c1)c(-c1ccc(C(=O)O)cc1OC(F)(F)F)cn2-c1ccc(C2CC2)nc1` [P-0388, 4-(1-(6-cyclopropylpyridin-3-yl)-5-(3,5-dimethylisoxazol-4-yl)-1H-pyrrolo[2,3-b]pyridin-3-yl)-3-(trifluoromethoxy)benzoic acid]: the IC50 lay within 0.1 to 1000 nM.

For the compound `Cc1noc(C)c1-c1cnc2c(c1)c(-c1ccc(C(=O)O)cc1OC(F)(F)F)cn2C1CCC(C#N)C1` (centres unmarked) [P-0389, 4-(1-(3-cyanocyclopentyl)-5-(3,5-dimethylisoxazol-4-yl)-1H-pyrrolo[2,3-b]pyridin-3-yl)-3-(trifluoromethoxy)benzoic acid], the half-maximal inhibitory concentration (IC50) lay in the range of 0.1 to 1000 nM.

`Cc1noc(C)c1-c1cnc2c(c1)c(-c1c(Cl)cc(C(=O)O)cc1OCC(F)F)cn2-c1cnc(C2CC2)nc1` [P-0390, 3-chloro-4-(1-(2-cyclopropylpyrimidin-5-yl)-5-(3,5-dimethylisoxazol-4-yl)-1H-pyrrolo[2,3-b]pyridin-3-yl)-5-(2,2-difluoroethoxy)benzoic acid]: the IC50 fell in the range of 0.1 to 1000 nM.

In the case of `Cc1noc(C)c1-c1cnc2c(c1)c(-c1c(Cl)cc(C(=O)O)cc1OC1CCC1)cn2-c1cnc(C2CC2)nc1` [P-0391, 3-chloro-5-cyclobutoxy-4-(1-(2-cyclopropylpyrimidin-5-yl)-5-(3,5-dimethylisoxazol-4-yl)-1H-pyrrolo[2,3-b]pyridin-3-yl)benzoic acid], the IC50 is 0.1 to 1000 nM.

On to `COc1ncc(-n2cc(-c3ccc(C(=O)O)cc3OC(F)(F)F)c3cc(-c4c(C)noc4C)cnc32)cn1` [P-0392, 4-(5-(3,5-dimethylisoxazol-4-yl)-1-(2-methoxypyrimidin-5-yl)-1H-pyrrolo[2,3-b]pyridin-3-yl)-3-(trifluoromethoxy)benzoic acid], for which the IC50 lay in the range of 0.1 to 1000 nM.

Regarding `Cc1noc(C)c1-c1cnc2c(c1)c(-c1c(Cl)cc(C(=O)O)cc1OC(C)C)cn2-c1cnc(C2CC2)nc1` [P-0393, 3-chloro-4-(1-(2-cyclopropylpyrimidin-5-yl)-5-(3,5-dimethylisoxazol-4-yl)-1H-pyrrolo[2,3-b]pyridin-3-yl)-5-isopropoxybenzoic acid], the concentration for half-maximal inhibition (IC50) was in the range of 0.1 to 1000 nM.

As for `Cc1noc(C)c1-c1cnc2c(c1)c(-c1c(F)cc(C(=O)O)cc1OC1CC1)cn2C(C1CC1)C1CC1` [P-0394, 3-cyclopropoxy-4-(1-(dicyclopropylmethyl)-5-(3,5-dimethylisoxazol-4-yl)-1H-pyrrolo[2,3-b]pyridin-3-yl)-5-fluorobenzoic acid], the IC50 fell in the range of 0.1 to 1000 nM.

Turning to `Cc1noc(C)c1-c1cnc2c(c1)c(-c1c(Cl)cc(C(=O)O)cc1OC(F)(F)F)cn2-c1ncccc1C#N` [P-0395, 3-chloro-4-(1-(3-cyanopyridin-2-yl)-5-(3,5-dimethylisoxazol-4-yl)-1H-pyrrolo[2,3-b]pyridin-3-yl)-5-(trifluoromethoxy)benzoic acid], the IC50 is 0.1 to 1000 nM.

Regarding `Cc1noc(C)c1-c1cnc2c(c1)c(-c1c(Cl)cc(C(=O)O)cc1OC1CCC1)cn2-c1ncccc1C#N` [P-0396, 3-chloro-4-(1-(3-cyanopyridin-2-yl)-5-(3,5-dimethylisoxazol-4-yl)-1H-pyrrolo[2,3-b]pyridin-3-yl)-5-cyclobutoxybenzoic acid], the concentration for half-maximal inhibition (IC50) is 0.1 to 1000 nM.

As for `Cc1noc(C)c1-c1cnc2c(c1)c(-c1c(F)cc(C(=O)O)cc1OC1CC1)cn2C1CCOCC1` [P-0397, 3-cyclopropoxy-4-(5-(3,5-dimethylisoxazol-4-yl)-1-(tetrahydro-2H-pyran-4-yl)-1H-pyrrolo[2,3-b]pyridin-3-yl)-5-fluorobenzoic acid], the IC50 lay within 0.1 to 1000 nM.

For `CCOc1nc(C(=O)O)c(Cl)cc1-c1cn(C2CCOCC2)c2ncc(-c3c(C)noc3C)cc12` [P-0398, 3-chloro-5-(5-(3,5-dimethylisoxazol-4-yl)-1-(tetrahydro-2H-pyran-4-yl)-1H-pyrrolo[2,3-b]pyridin-3-yl)-6-ethoxypicolinic acid], the 50% inhibitory concentration (IC50) was 0.1 to 1000 nM.

For the compound `Cc1noc(C)c1-c1cnc2c(c1)c(-c1ccc(C(=O)O)cc1OC(F)(F)F)cn2-c1ccc(=O)n(C)c1` [P-0399, 4-(5-(3,5-dimethylisoxazol-4-yl)-1-(1-methyl-6-oxo-1,6-dihydropyridin-3-yl)-1H-pyrrolo[2,3-b]pyridin-3-yl)-3-(trifluoromethoxy)benzoic acid], the half-maximal inhibitory concentration (IC50) lay in the range of 0.1 to 1000 nM.

For `CCc1noc(C)c1-c1cnc2c(c1)c(-c1ccc(C(=O)O)cc1OC(F)(F)F)cn2C1CCOCC1` [P-0400, 4-(5-(3-ethyl-5-methylisoxazol-4-yl)-1-(tetrahydro-2H-pyran-4-yl)-1H-pyrrolo[2,3-b]pyridin-3-yl)-3-(trifluoromethoxy)benzoic acid], the concentration for half-maximal inhibition (IC50) is 0.1 to 1000 nM.

For `CCc1onc(C)c1-c1cnc2c(c1)c(-c1ccc(C(=O)O)cc1OC(F)(F)F)cn2C1CCOCC1` [P-0401, 4-(5-(5-ethyl-3-methylisoxazol-4-yl)-1-(tetrahydro-2H-pyran-4-yl)-1H-pyrrolo[2,3-b]pyridin-3-yl)-3-(trifluoromethoxy)benzoic acid], the IC50 was in the range of 0.1 to 1000 nM.

For the compound `Cc1cc(C(=O)O)cc(OC(C)C)c1-c1cn(C2CCOCC2)c2ncc(-c3c(C)noc3C)cc12` [P-0402, 4-(5-(3,5-dimethylisoxazol-4-yl)-1-(tetrahydro-2H-pyran-4-yl)-1H-pyrrolo[2,3-b]pyridin-3-yl)-3-isopropoxy-5-methylbenzoic acid], the IC50 lay within 0.1 to 1000 nM.

Consider `Cc1noc(C)c1-c1cnc2c(c1)c(-c1ccc(C(=O)O)cc1OC(C)C)cn2C1(C)CCOCC1` [P-0403, 4-(5-(3,5-dimethylisoxazol-4-yl)-1-(4-methyltetrahydro-2H-pyran-4-yl)-1H-pyrrolo[2,3-b]pyridin-3-yl)-3-isopropoxybenzoic acid], for which the IC50 was in the range of 0.1 to 1000 nM.

Take `Cc1noc(C)c1-c1cnc2c(c1)c(-c1c(Cl)cc(C(=O)O)cc1OC(C)C)cn2C1(C)CCOCC1` [P-0404, 3-chloro-4-(5-(3,5-dimethylisoxazol-4-yl)-1-(4-methyltetrahydro-2H-pyran-4-yl)-1H-pyrrolo[2,3-b]pyridin-3-yl)-5-isopropoxybenzoic acid]: the IC50 lay in the range of 0.1 to 1000 nM.

Take `CCOc1nc(C(=O)O)ccc1-c1cn(C2(C)CCOCC2)c2ncc(-c3c(C)noc3C)cc12` [P-0405, 5-(5-(3,5-dimethylisoxazol-4-yl)-1-(4-methyltetrahydro-2H-pyran-4-yl)-1H-pyrrolo[2,3-b]pyridin-3-yl)-6-ethoxypicolinic acid]: the IC50 is 0.1 to 1000 nM.

`CCOc1nc(C(=O)O)c(Cl)cc1-c1cn([C@H]2CCOC2)c2ncc(-c3c(C)noc3C)cc12` [P-0406, (S)-3-chloro-5-(5-(3,5-dimethylisoxazol-4-yl)-1-(tetrahydrofuran-3-yl)-1H-pyrrolo[2,3-b]pyridin-3-yl)-6-ethoxypicolinic acid]: the 50% inhibitory concentration (IC50) is 0.1 to 1000 nM.

On to `Cc1noc(C)c1-c1cnc2c(c1)c(-c1ccc(C(=O)O)cc1OC(C)C)cn2C1(C)CCOC1` (centres unmarked) [P-0407, 4-(5-(3,5-dimethylisoxazol-4-yl)-1-(3-methyltetrahydrofuran-3-yl)-1H-pyrrolo[2,3-b]pyridin-3-yl)-3-isopropoxybenzoic acid], for which the IC50 was 0.1 to 1000 nM.

Turning to `Cc1noc(C)c1-c1cnc2c(c1)c(-c1c(Cl)cc(C(=O)O)cc1OC(C)C)cn2C1(C)CCOC1` (centres unmarked) [P-0408, 3-chloro-4-(5-(3,5-dimethylisoxazol-4-yl)-1-(3-methyltetrahydrofuran-3-yl)-1H-pyrrolo[2,3-b]pyridin-3-yl)-5-isopropoxybenzoic acid], the 50% inhibitory concentration (IC50) lay within 0.1 to 1000 nM.

Regarding `Cc1noc(C)c1-c1cnc2c(c1)c(-c1c(Cl)cc(C(=O)O)cc1OC1CC1)cn2-c1ncccc1C#N` [P-0409, 3-chloro-4-(1-(3-cyanopyridin-2-yl)-5-(3,5-dimethylisoxazol-4-yl)-1H-pyrrolo[2,3-b]pyridin-3-yl)-5-cyclopropoxybenzoic acid], the IC50 fell in the range of 0.1 to 1000 nM.

As for `Cc1noc(C)c1-c1cnc2c(c1)c(-c1c(F)cc(C(=O)O)cc1OC1CCC1)cn2C1CCOCC1` [P-0410, 3-cyclobutoxy-4-(5-(3,5-dimethylisoxazol-4-yl)-1-(tetrahydro-2H-pyran-4-yl)-1H-pyrrolo[2,3-b]pyridin-3-yl)-5-fluorobenzoic acid], the half-inhibitory concentration (IC50) lay in the range of 0.1 to 1000 nM.
